Source: paper PMC10426190 (Breast Cancer Research : BCR, 2023)

Test system: E2-induced (ER target) genes in MCF7
Assay: Gene expression analysis by RNA-sequencing in MCF7 with E2 stimulation
Type: cell-based, human
Details: MCF7; 1 nM E2 ± 1 μM compound, 24 h
Experimental: MCF7 were cultured in hormone deprivation media (with 10% charcoal-stripped FBS) for at least 3 days before assay. Trypsinized cells were seeded in a 12-well plate, stimulated with 1 nM β-estradiol (E2), and treated with/without 1 μM compounds for 24 h. Total RNA was extracted using the TRIzol reagent according to the manufacturer’s protocol. RNA purity and quantification were evaluated using the NanoDrop 2000 spectrophotometer (Thermo Scientific, USA). RNA integrity was assessed using the Agilent 2100 Bioanalyzer (Agilent Technologies, Santa Clara, CA, USA). Then the libraries were constructed using TruSeq Stranded mRNA LT Sample Prep Kit (Illumina, San Diego, CA, USA) according to the manufacturer’s instructions. The transcriptome sequencing and analysis were conducted by OE Biotech Co., Ltd. (Shanghai, China). The libraries were sequenced on an Illumina HiSeq X Ten platform and 150 bp paired-end reads were generated. […] Raw data (raw reads) of FASTq format were firstly processed using Trimmomatic and the low-quality reads were removed to obtain the clean reads. […] The clean reads were mapped to the human genome (GRCh38) using HISAT2 [27]. FPKM [28] of each gene was calculated using Cufflinks, and the read counts of each gene were obtained by HTSeqcount. Differential expression analysis was performed using the DESeq (2012) R package.
MCF7 with hormone-deprived pre-treatment were administrated ER ligands or not present with 1 nM E2 stimulation for 24 h incubation in a 12-well plate. Total mRNA was isolated from treated cells and sequenced on an Illumina HiSeq X Ten platform. FPKM of each gene was calculated using Cufflinks and Differential expression genes analysis by using the DESeq (2012) R package. […] T47D EFM-19 and HCC1500 cells were grown in RPMI media supplemented with 10% charcoal-stripped FBS for 14 days and then treated with ER antagonist (1 μM) or DMSO in the presence E2 (1nM) stimulation for 24 h before RNA isolation and gene expression analysis as described in methods. […] The uteruses were harvested 24 h after the final doses and stained by toluidine blue. Endometrial height was assessed from the basement membrane to the luminal border (scale bar in green lines: 200 μm), Arrows indicate the uterine epithelium (e).

## C[C@]12CC[C@@H]3c4ccc(O)cc4C[C@@H](CCCCCCCCC[S+]([O-])CCCC(F)(F)C(F)(F)F)[C@H]3[C@@H]1CC[C@@H]2O (some centres unmarked) [Fulvestrant]
  ACTG2 expression: 1.20 FPKM
  ADCY1 expression: 6.76 FPKM
  AGR3 expression: 2.46 FPKM
  AMZ1 expression: 0.77 FPKM
  ANLN expression: 18.71 FPKM
  ARHGAP36 expression: 0.28 FPKM
  ASCL1 expression: 0.54 FPKM
  ASF1B expression: 26.04 FPKM
  ASMTL-2 expression: 1.41 FPKM
  ATAD2 expression: 23.77 FPKM
  ATRNL1 expression: 0.05 FPKM
  AURKB expression: 19.26 FPKM
  BIRC5 expression: 23.46 FPKM
  BLM expression: 2.45 FPKM
  BMPER expression: 0.11 FPKM
  BRCA1 expression: 2.96 FPKM
  BRCA2 expression: 2.04 FPKM
  BRIP1 expression: 17.34 FPKM
  BUB1B expression: 8.27 FPKM
  C1orf226 expression: 3.74 FPKM
  C5AR2 expression: 0.51 FPKM
  CA2 expression: 87.89 FPKM
  CA12 expression: 18.70 FPKM
  CALCR expression: 0.77 FPKM
  CAV1 expression: 5.48 FPKM
  CCN5 expression: 22.35 FPKM
  CCNA2 expression: 15.79 FPKM
  CCNE2 expression: 4.70 FPKM
  CD99-2 expression: 1.09 FPKM
  CDC6 expression: 4.59 FPKM
  CDC25A expression: 1.67 FPKM
  CDC45 expression: 5.51 FPKM
  CDCA3 expression: 6.06 FPKM
  CDCA4 expression: 12.74 FPKM
  CDCA5 expression: 11.52 FPKM
  CDCA7 expression: 1.84 FPKM
  CDH26 expression: 0.21 FPKM
  CDK1 expression: 14.26 FPKM
  CDT1 expression: 21.42 FPKM
  CENPI expression: 2.93 FPKM
  CENPU expression: 4.96 FPKM
  CHAF1B expression: 1.52 FPKM
  CHEK1 expression: 2.32 FPKM
  CKS1B expression: 46.61 FPKM
  CLSPN expression: 1.80 FPKM
  COL12A1 expression: 1.73 FPKM
  CXCL12 expression: 1.70 FPKM
  DDIAS expression: 2.63 FPKM
  DHRSX-2 expression: 0.11 FPKM
  DKK1 expression: 26.72 FPKM
  DNA2 expression: 2.77 FPKM
  DPYSL5 expression: 0.36 FPKM
  DSCC1 expression: 4.38 FPKM
  DTL expression: 1.38 FPKM
  E2F1 expression: 7.00 FPKM
  E2F2 expression: 1.27 FPKM
  E2F7 expression: 2.55 FPKM
  E2F8 expression: 3.66 FPKM
  ELOVL2 expression: 3.33 FPKM
  EME1 expression: 3.73 FPKM
  ERCC6L expression: 1.34 FPKM
  ESCO2 expression: 2.24 FPKM
  ESPL1 expression: 7.73 FPKM
  EXO1 expression: 2.15 FPKM
  FAM20A expression: 0.46 FPKM
  FAM111B expression: 2.82 FPKM
  FANCA expression: 9.92 FPKM
  FANCD2 expression: 5.42 FPKM
  FANCI expression: 16.43 FPKM
  FEN1 expression: 24.35 FPKM
  FIGNL1 expression: 2.36 FPKM
  FKBP4 expression: 43.52 FPKM
  GATA4 expression: 0.00 FPKM
  GFRA1 expression: 26.23 FPKM
  GINS1 expression: 8.52 FPKM
  GINS2 expression: 8.09 FPKM
  GJA1 expression: 0.06 FPKM
  GLA expression: 31.47 FPKM
  GP1BB expression: 0.79 FPKM
  GPR68 expression: 0.13 FPKM
  GPRIN1 expression: 2.95 FPKM
  GREB1 expression: 3.94 FPKM
  H2AX expression: 89.38 FPKM
  HBB expression: 0.00 FPKM
  HELLS expression: 2.89 FPKM
  HEY2 expression: 0.43 FPKM
  HMGB2 expression: 118.94 FPKM
  IGFBP4 expression: 26.82 FPKM
  IGSF1 expression: 3.55 FPKM
  ITGA2B expression: 0.30 FPKM
  KIF11 expression: 11.20 FPKM
  KIF18B expression: 4.13 FPKM
  KIFC1 expression: 12.36 FPKM
  KLK11 expression: 1.75 FPKM
  KNL1 expression: 3.41 FPKM
  KNTC1 expression: 5.81 FPKM
  LHX2 expression: 1.30 FPKM
  LIG1 expression: 19.47 FPKM
  LMNB1 expression: 49.03 FPKM
  MAD2L1 expression: 6.32 FPKM
  MCM2 expression: 24.98 FPKM
  MCM3 expression: 30.18 FPKM
  MCM4 expression: 38.73 FPKM
  MCM5 expression: 9.71 FPKM
  MCM6 expression: 18.69 FPKM
  MCM7 expression: 65.17 FPKM
  MCM10 expression: 2.51 FPKM
  MELK expression: 9.66 FPKM
  MKI67 expression: 19.11 FPKM
  MYB expression: 3.86 FPKM
  MYBL1 expression: 0.96 FPKM
  MYBL2 expression: 29.90 FPKM
  NCAPG2 expression: 15.05 FPKM
  NCAPG expression: 5.76 FPKM
  NPY1R expression: 3.20 FPKM
  ORC1 expression: 2.67 FPKM
  ORC6 expression: 5.57 FPKM
  PAQR4 expression: 9.57 FPKM
  PBK expression: 14.24 FPKM
  PCLAF expression: 28.12 FPKM
  PCNA expression: 48.34 FPKM
  PDZK1 expression: 0.47 FPKM
  PGR expression: 0.52 FPKM
  PKIB expression: 16.14 FPKM
  PKMYT1 expression: 9.90 FPKM
  POLA1 expression: 2.69 FPKM
  POLA2 expression: 4.51 FPKM
  POLD1 expression: 11.19 FPKM
  POLE2 expression: 2.45 FPKM
  POLE expression: 11.56 FPKM
  POLQ expression: 2.64 FPKM
  PRIM1 expression: 7.88 FPKM
  PRSS23 expression: 49.30 FPKM
  RAB31 expression: 6.58 FPKM
  RAD51AP1 expression: 5.24 FPKM
  RAD51 expression: 3.28 FPKM
  RAD54L expression: 3.44 FPKM
  RAMP3 expression: 0.40 FPKM
  RAPGEFL1 expression: 2.18 FPKM
  RBL1 expression: 2.06 FPKM
  RECQL4 expression: 10.79 FPKM
  RERG expression: 2.17 FPKM
  RET expression: 1.74 FPKM
  RFC2 expression: 14.47 FPKM
  RFC3 expression: 3.82 FPKM
  RFC4 expression: 10.05 FPKM
  RNASEH2A expression: 24.71 FPKM
  RRM1 expression: 19.08 FPKM
  RRM2 expression: 24.81 FPKM
  RUBCNL expression: 0.10 FPKM
  SDK2 expression: 0.25 FPKM
  SFXN2 expression: 7.17 FPKM
  SHCBP1 expression: 2.87 FPKM
  SKA3 expression: 4.69 FPKM
  SLC6A14 expression: 8.71 FPKM
  SMC2 expression: 6.16 FPKM
  SPC24 expression: 6.59 FPKM
  SPC25 expression: 6.79 FPKM
  STC2 expression: 28.34 FPKM
  TACC3 expression: 19.06 FPKM
  TCF19 expression: 6.28 FPKM
  TCOF1 expression: 9.75 FPKM
  TGM2 expression: 0.56 FPKM
  TICRR expression: 3.71 FPKM
  TK1 expression: 42.16 FPKM
  TMEM26 expression: 0.84 FPKM
  TMEM164 expression: 6.22 FPKM
  TONSL expression: 9.44 FPKM
  TOP2A expression: 29.21 FPKM
  TP73 expression: 1.03 FPKM
  TRIP13 expression: 6.92 FPKM
  TUBA1B expression: 473.72 FPKM
  TUBB expression: 230.78 FPKM
  TYMS expression: 25.13 FPKM
  UBE2C expression: 32.42 FPKM
  UBE2T expression: 45.52 FPKM
  UHRF1 expression: 6.71 FPKM
  UNG expression: 29.02 FPKM
  WDHD1 expression: 4.38 FPKM
  WDR62 expression: 5.55 FPKM
  WDR76 expression: 1.69 FPKM
  XRCC2 expression: 2.48 FPKM
  XRCC3 expression: 5.83 FPKM
  ZGRF1 expression: 1.75 FPKM
  ZNF367 expression: 4.18 FPKM
